Drawing on ChEMBL document CHEMBL1135510, “Common and selective molecular determinants involved in metabotopic glutamate receptor agonist activity” (J Med Chem, 2002), this text covers NE and Ki for eight compounds.

Where only a bound is given, the exact number is not on record here.

In test [1] the target is T1, Metabotropic glutamate receptor 2 (Homo sapiens, UniProt Q14416). Briefly: Potency at Metabotropic glutamate receptor 2, measured as the ratio of EC50 to IC50; No effect at 1 mM.
Target sequence in this assay (Q14416 19-872 limits assumed): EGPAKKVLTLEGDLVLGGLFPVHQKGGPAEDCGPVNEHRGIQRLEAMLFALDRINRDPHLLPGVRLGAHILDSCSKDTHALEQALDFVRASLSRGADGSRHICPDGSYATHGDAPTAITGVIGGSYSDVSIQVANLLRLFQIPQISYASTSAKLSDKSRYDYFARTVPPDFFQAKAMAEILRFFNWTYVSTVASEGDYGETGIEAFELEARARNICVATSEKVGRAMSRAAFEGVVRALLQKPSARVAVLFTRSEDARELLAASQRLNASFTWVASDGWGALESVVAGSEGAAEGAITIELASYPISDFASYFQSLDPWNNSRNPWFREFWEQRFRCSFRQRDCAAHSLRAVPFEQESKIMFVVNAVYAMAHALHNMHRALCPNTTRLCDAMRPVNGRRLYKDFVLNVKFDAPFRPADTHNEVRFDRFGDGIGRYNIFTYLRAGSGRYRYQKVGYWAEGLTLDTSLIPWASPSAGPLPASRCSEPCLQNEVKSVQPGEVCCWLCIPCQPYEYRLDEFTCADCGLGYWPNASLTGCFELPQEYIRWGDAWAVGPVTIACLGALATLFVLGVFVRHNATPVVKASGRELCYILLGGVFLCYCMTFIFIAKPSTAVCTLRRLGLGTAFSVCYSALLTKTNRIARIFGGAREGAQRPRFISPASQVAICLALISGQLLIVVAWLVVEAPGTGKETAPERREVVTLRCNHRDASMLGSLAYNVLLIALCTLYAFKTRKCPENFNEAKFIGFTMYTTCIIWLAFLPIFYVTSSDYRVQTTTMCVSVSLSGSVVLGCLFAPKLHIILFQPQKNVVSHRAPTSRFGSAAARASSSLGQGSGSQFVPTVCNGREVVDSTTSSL
Test [2] concerns the target Metabotropic glutamate receptor 1 (Homo sapiens) (UniProt Q13255). Kind of test: Potency at Metabotropic glutamate receptor 1, measured as the ratio of EC50 to IC50; No effect at 1 mM.
The target of test [3] is T1, Metabotropic glutamate receptor 2. Kind of test: Binding affinity at Metabotropic glutamate receptor 2. More on the design: species or system Rattus norvegicus.
Target sequence in this assay (Q14416 whole entry): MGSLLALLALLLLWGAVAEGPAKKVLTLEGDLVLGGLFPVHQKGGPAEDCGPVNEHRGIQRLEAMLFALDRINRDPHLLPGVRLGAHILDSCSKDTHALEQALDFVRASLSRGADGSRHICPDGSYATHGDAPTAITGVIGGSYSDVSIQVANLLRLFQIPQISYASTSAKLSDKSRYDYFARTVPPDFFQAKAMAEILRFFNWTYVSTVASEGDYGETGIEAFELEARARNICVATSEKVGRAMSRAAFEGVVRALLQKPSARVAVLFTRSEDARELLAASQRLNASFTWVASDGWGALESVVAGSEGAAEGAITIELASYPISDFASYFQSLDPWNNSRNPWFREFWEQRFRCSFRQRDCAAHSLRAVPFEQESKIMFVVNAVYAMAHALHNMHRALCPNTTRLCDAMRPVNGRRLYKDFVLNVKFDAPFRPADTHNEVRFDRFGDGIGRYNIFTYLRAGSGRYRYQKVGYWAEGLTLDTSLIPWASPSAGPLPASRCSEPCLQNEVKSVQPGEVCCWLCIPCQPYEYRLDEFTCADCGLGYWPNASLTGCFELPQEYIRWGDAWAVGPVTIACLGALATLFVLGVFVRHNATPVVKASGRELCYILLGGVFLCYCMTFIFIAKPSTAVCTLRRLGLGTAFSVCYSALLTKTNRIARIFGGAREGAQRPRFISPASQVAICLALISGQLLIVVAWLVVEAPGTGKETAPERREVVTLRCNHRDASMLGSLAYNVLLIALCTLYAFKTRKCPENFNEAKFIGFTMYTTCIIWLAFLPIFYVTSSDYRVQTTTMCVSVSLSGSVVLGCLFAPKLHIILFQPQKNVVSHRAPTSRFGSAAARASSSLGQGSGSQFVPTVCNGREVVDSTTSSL
Test [4] shares this target. Kind of test: Potency at metabotropic glutamate receptor 2, measured as the ratio of EC50 to IC50; No effect at 1 mM.
Target sequence in this assay (Q14416 19-872 limits assumed): as the sequence (Q14416 19-872 limits assumed) above
Test [5] addresses Metabotropic glutamate receptor 1 (Rattus norvegicus, UniProt P23385). Briefly: Inhibition of binding to rat mGluR1a (metabotropic glutamate receptor) expressed in HEK-293 cells. Type of test: cell-based, HEK293.
In test [6] the target is T2, Metabotropic glutamate receptor 4 (Homo sapiens, UniProt Q14833). Briefly: Potency at metabotropic glutamate receptor 4, measured as the ratio of EC50 to IC50; No effect at 1 mM.
T2 sequence (Q14833 whole entry): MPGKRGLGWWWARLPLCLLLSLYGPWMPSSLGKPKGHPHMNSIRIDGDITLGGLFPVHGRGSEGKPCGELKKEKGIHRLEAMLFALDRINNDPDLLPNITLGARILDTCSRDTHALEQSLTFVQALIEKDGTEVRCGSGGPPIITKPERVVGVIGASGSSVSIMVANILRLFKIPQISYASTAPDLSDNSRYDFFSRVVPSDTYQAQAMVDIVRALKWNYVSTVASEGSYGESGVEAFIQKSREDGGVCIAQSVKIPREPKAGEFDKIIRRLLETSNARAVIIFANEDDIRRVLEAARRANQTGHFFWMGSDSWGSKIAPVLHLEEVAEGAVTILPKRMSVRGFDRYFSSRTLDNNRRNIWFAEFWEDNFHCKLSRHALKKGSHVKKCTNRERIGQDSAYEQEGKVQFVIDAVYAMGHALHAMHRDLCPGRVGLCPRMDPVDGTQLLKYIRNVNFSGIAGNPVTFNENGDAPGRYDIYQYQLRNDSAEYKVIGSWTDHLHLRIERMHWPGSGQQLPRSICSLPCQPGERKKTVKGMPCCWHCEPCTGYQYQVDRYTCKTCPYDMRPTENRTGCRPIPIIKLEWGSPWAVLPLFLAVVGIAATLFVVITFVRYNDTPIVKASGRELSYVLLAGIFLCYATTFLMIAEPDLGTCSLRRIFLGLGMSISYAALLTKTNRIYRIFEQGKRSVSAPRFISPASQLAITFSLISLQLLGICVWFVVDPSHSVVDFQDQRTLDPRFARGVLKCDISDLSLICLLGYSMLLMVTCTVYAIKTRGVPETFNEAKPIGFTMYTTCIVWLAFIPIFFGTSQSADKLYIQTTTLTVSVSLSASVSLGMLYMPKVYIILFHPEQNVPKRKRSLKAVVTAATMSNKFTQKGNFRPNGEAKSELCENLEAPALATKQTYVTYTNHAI
In test [7] the target is T2, Metabotropic glutamate receptor 4. Kind of test: Binding affinity at Metabotropic glutamate receptor 4. The arrangement: species or system Rattus norvegicus.
The target of test [8] is Metabotropic glutamate receptor 1 (Homo sapiens) (UniProt Q13255). Briefly: Potency at metabotropic glutamate receptor 1, measured as the ratio of EC50 to IC50; No effect at 1 mM.
Sequence of Metabotropic glutamate receptor 1 (Homo sapiens) (Q13255 19-1194 limits assumed): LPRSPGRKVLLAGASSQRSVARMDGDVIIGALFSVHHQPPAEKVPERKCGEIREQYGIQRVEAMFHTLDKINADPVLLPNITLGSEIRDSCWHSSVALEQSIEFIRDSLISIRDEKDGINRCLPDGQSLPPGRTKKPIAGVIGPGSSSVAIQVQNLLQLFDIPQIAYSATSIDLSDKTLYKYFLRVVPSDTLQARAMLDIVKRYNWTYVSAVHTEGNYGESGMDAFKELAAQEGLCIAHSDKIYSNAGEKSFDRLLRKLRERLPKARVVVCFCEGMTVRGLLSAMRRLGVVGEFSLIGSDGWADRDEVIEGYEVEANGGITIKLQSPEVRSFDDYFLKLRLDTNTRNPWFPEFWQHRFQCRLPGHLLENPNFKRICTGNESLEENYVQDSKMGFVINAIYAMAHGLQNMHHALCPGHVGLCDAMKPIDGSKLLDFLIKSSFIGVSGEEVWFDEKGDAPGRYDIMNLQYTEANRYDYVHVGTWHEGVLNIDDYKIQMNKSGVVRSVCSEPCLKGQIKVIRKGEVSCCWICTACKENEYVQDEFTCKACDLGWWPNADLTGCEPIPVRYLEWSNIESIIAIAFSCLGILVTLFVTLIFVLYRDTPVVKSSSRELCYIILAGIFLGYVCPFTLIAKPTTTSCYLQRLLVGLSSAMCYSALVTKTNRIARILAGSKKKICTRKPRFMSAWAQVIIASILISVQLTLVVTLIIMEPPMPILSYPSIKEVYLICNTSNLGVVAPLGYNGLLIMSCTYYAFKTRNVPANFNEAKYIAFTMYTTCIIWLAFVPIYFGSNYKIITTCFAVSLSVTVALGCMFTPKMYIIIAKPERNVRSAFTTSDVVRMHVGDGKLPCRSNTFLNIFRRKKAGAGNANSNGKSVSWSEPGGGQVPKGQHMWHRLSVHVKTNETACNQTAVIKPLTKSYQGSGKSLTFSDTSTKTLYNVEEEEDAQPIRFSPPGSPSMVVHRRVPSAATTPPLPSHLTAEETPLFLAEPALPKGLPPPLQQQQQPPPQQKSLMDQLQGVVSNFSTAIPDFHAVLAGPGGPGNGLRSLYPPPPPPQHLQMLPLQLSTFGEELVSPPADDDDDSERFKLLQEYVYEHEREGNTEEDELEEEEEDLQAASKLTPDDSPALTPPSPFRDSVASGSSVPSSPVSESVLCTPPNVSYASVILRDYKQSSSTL

Sequence of Metabotropic glutamate receptor 1 (P23385 whole entry): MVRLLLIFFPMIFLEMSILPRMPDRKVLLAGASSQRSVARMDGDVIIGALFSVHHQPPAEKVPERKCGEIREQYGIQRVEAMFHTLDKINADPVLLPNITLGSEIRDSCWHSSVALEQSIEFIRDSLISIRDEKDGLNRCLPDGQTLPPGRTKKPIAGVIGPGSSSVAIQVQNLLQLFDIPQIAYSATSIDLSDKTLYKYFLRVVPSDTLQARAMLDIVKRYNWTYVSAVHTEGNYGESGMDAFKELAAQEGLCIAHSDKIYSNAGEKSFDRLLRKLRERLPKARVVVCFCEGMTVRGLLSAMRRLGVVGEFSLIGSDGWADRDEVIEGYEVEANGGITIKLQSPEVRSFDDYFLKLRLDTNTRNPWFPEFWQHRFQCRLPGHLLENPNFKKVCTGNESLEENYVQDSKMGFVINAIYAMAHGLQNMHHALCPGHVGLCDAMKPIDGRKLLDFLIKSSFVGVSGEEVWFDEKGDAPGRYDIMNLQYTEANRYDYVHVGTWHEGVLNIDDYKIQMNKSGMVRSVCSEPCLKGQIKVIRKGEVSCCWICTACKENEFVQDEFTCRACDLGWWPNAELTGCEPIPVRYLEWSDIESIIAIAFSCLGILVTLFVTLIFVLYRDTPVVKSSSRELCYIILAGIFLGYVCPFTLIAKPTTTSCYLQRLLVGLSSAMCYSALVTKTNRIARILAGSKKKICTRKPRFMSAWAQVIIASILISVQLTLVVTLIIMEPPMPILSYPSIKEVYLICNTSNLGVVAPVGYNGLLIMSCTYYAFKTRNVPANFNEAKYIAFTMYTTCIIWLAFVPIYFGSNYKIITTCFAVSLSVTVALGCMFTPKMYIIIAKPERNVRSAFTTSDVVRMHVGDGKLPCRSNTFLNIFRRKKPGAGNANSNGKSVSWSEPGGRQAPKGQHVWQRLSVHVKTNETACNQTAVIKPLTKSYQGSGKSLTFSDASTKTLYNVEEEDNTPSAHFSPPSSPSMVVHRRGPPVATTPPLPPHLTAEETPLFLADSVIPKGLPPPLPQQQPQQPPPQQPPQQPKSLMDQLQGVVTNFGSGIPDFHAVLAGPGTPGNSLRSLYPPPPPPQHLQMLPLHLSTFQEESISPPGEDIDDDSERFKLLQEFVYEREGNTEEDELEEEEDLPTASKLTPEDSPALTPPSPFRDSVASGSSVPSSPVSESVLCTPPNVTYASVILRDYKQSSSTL

Consider `N[C@H](C(=O)O)c1ccc(P(=O)(O)O)cc1`, for which the NE entry in test [1] and in test [2] was “No effect at 1 mM” each time.
Regarding `N[C@@]1(C(=O)O)C[C@H](C(=O)O)[C@H](C(=O)O)C1`, the NE entry in test [1] and in test [2] was “No effect at 1 mM” throughout.
In general, Ki refers to a measure of affinity in units of concentration, obtained from inhibition or displacement. A low value points to tighter binding. Regarding `N[C@@]1(C(=O)O)CC[C@H]2[C@H](C(=O)O)[C@H]21`, the Ki in test [3] turned out to be 0.013 µM.
Take `N[C@H](C(=O)O)c1cc(O)cc(O)c1`: the NE result in test [4] and in test [6] was “No effect at 1 mM” in each case. Moreover, the values for the Ki in test [5] and in test [3] were 0.9 µM and greater than 1000 µM, respectively.
As for `N[C@H](C(=O)O)c1ccc(C(=O)O)cc1`, the Ki in test [5] was determined as 3.7 µM; in test [7] it was 838 µM.
On to `N[C@@H](CCP(=O)(O)O)C(=O)O`, for which the figures for the inhibitory constant (Ki) in test [5], in test [3] and in test [7] were greater than 1000 µM, 129 µM and 0.47 µM, respectively. For the same compound, the NE entry in test [8] was “No effect at 1 mM”.
Consider `N[C@@H](Cn1oc(=O)[nH]c1=O)C(=O)O` [QUISQUALATE], for which the Ki amounted to 113 µM in test [3] and 112 µM in test [7].
As to `N[C@H](C(=O)O)C1[C@@H](C(=O)O)[C@@H]1C(=O)O` (some centres undefined), the Ki in test [5] stood at 77 µM; in test [3], 0.11 µM.
